The source of these data is article PMC2206373, “Identification of an altered peptide ligand based on the endogenously presented, rheumatoid arthritis-associated, human cartilage glycoprotein-39(263–275) epitope: an MHC anchor variant peptide for immune modulation” (Arthritis Research & Therapy, 2007).

No end group written: not given here.

Test [1] relates to popliteal lymph node cells from F265(Dip)-immunized HLA-DR4trg mice. The test is described as follows: Antigen-specific proliferation of popliteal lymph node cells from F265(Dip)-immunized mice. The format is cell-based, mouse. The following applies: Figure 4b. As to the method: Mice, obtained from L Fugger (Oxford, UK), were immunized in the hind footpads with 2 × 50 μg of purified recombinant HC gp-39, with 2 × 100 μg of the WT peptide or with 2 × 100 μg of the APL (F265(Dip); compound 28; Figure 1) mixed in IFA. Seven days later, popliteal lymph node cell suspensions (1 to 2 × 10^5 cells/well) were stimulated in vitro with HC gp-39 (50, 10 or 2 μg/ml), HC gp-39(263–275) or APL (10, 2 and 0.4 μg/ml). At 96 h, 50 μl of culture medium was harvested for analysis of antigen-specific cytokine production using Luminex technology (mouse cytokine 18 Plex Panel, catalogue no. 171-F11181, Biorad, Bio-Rad Laboratories, Hercules, CA, USA). In addition, cultures were labelled with tritiated thymidine (for 18 h) and antigen-specific proliferation was determined. We state that all animal experimentation received ethics approval and animals were treated according to the recognized guidelines.

Another test relates to T cell hybridoma 14G11. The test is described as follows: T hybridoma 14G11 IL-2 response. The test is classed as cell-based, mouse. The following applies: for Hybridoma response (SI) 14G11: IL-2 by ELISA after 48 h, peptide 10 μg/ml, SI > 2 positive.

With “RSFTLASSETGVG [Compound 1, HC gp-39(263–275)]”, the “In vitro recall proliferative response in words” value in test [1] is reported as “somewhat less”. In addition, in the test on T cell hybridoma 14G11 (Figure 1, IL-2 production, DRB1*0401 BLCL as APC, duplicate or triplicate, background 7,152 counts, ±30% of WT response = super/partial agonist), the “T hybridoma (SI) 14G11” value is given as 35 SI. In the test with T cell hybridoma 14G11 (Figure 2a dose response, IL-2 ELISA after 48 h), the “Peptide concentration for half maximal stimulation (IL-2), 14G11” value is 0.26 µg/mL. Also, the “Hybridoma response (SI) 14G11” value is given as 15 SI in the test with T cell hybridoma 14G11 (Table 1, DRB1*0401 BLCL as APC, background 8,598 counts, representative of at least three experiments) and 30 SI in the test on T cell hybridoma 14G11 (Table 2, DRB1*0401 BLCL as APC, background 10,131 counts, SD not above 15%).
